Experimental data reported in ChEMBL document CHEMBL1201862, “PubChem BioAssay data set” (2004).
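1) Cells in 96-well plates. 2) Compound, 48 h, 5 concentrations. 3) Linear interpolation between surrounding doses. 4) Unreached endpoint = highest concentration. GI50 is the concentration that inhibits growth by half.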 Calls of active or inactive are those of the source. Cut-off read from the data, not from the text of the source: active = GI50 up to about 1.1 µM and inactive = higher. Residues, ends and D or L forms follow the SMILES beside them. *: point of attachment. Ethyl(2-NMe3+) = C[N+](C)(C)CC*; Boc = CC(C)(C)OC(=O)*

Columns and labels:
Assay in all cases: NCI tumour cell line growth inhibition, 48 h
NCI-H23 = tested on: NCI-H23
SK-MEL-2 = tested on: SK-MEL-2
OVCAR-4 = tested on: OVCAR-4
NCI-H460 = tested on: NCI-H460
A549 = tested on: A549
IGROV-1 = tested on: IGROV-1
NCI-H226 = tested on: NCI-H226
SN12C = tested on: SN12C
M14 = tested on: M14
HOP-62 = tested on: HOP-62
SK-MEL-5 = tested on: SK-MEL-5
BT-549 = tested on: BT-549
A498 = tested on: A498
MDA-N = tested on: MDA-N
HCT-116 = tested on: HCT-116
MDA-MB-435 = tested on: MDA-MB-435
TK-10 = tested on: TK-10
CCRF-CEM = tested on: CCRF-CEM
SF-539 = tested on: SF-539

Measured: GI50

NC(=O)CNC(=O)[C@@H]1C[C@@H](OCCC(=O)O)CN1C(=O)OCc1ccccc1
inactive: NCI-H23 > 100 µM | SK-MEL-2 > 100 µM | OVCAR-4 > 100 µM | NCI-H460 > 100 µM | A549 > 100 µM | IGROV-1 > 100 µM | NCI-H226 > 100 µM | SN12C > 100 µM | M14 > 100 µM | HOP-62 > 100 µM | SK-MEL-5 > 100 µM | BT-549 > 100 µM | A498 > 100 µM | MDA-N > 100 µM | HCT-116 > 100 µM | MDA-MB-435 > 100 µM | TK-10 > 100 µM | CCRF-CEM > 100 µM

CCOC(=O)c1nc2cc(C(F)(F)F)ccc2nc1Nc1ccc(OC)c(OC)c1
inactive: NCI-H23 > 100 µM | NCI-H460 > 100 µM | A549 > 100 µM | IGROV-1 > 100 µM | SN12C > 100 µM | M14 > 100 µM | HOP-62 32 µM | SK-MEL-5 > 100 µM | BT-549 > 100 µM | A498 > 100 µM | MDA-N > 100 µM | HCT-116 > 100 µM | MDA-MB-435 > 100 µM | TK-10 > 100 µM | CCRF-CEM > 100 µM | SF-539 > 100 µM

CC(NC(=O)C(Cc1ccc(OCC[N+](C)(C)C)cc1)NC(=O)OC(C)(C)C)C(=O)NC(Cc1ccccc1)C(=O)NCC(N)=O (stereo not drawn) (Boc-Y(Ethyl(2-NMe3+))AFG-NH2; configuration not given here)
inactive: NCI-H23 15.5 µM | SK-MEL-2 11.9 µM | OVCAR-4 38.1 µM | NCI-H460 70.5 µM | A549 36.8 µM | IGROV-1 20.1 µM | NCI-H226 22.7 µM | SN12C 37.2 µM | M14 65.9 µM | HOP-62 2.44 µM | SK-MEL-5 > 100 µM | BT-549 20.2 µM | A498 13.4 µM | MDA-N > 100 µM | HCT-116 34.9 µM | MDA-MB-435 > 100 µM | TK-10 11.8 µM | SF-539 11.4 µM

CCOC(=O)c1cc2cc([N+](=O)[O-])ccc2oc1=O
inactive: NCI-H23 > 100 µM | SK-MEL-2 > 10 µM | OVCAR-4 > 100 µM | NCI-H460 69.5 µM | A549 > 100 µM | IGROV-1 > 100 µM | NCI-H226 > 100 µM | SN12C > 100 µM | M14 > 100 µM | HOP-62 > 100 µM | SK-MEL-5 > 100 µM | BT-549 > 100 µM | A498 > 100 µM | MDA-N > 100 µM | HCT-116 93.3 µM | MDA-MB-435 > 100 µM | CCRF-CEM > 100 µM | SF-539 > 100 µM

O=[As](O)(O)c1ccc2nc3cc([As](=O)(O)O)ccc3nc2c1
inactive: NCI-H23 > 100 µM | SK-MEL-2 > 100 µM | OVCAR-4 > 100 µM | NCI-H460 > 100 µM | A549 > 100 µM | IGROV-1 > 100 µM | NCI-H226 > 100 µM | SN12C > 100 µM | M14 > 100 µM | HOP-62 > 100 µM | SK-MEL-5 > 100 µM | BT-549 > 100 µM | A498 > 100 µM | MDA-N > 100 µM | HCT-116 > 100 µM | MDA-MB-435 > 100 µM | TK-10 > 100 µM

ClC(Cl)(Cl)C1=N[C@H]2[C@H](Br)[C@@H]3O[C@@H](c4ccccc4)[C@H](c4ccccc4)O[C@@H]3[C@H]2O1
inactive: NCI-H23 21 µM | SK-MEL-2 16.2 µM | OVCAR-4 18.7 µM | NCI-H460 16 µM | A549 21.5 µM | IGROV-1 15.3 µM | NCI-H226 19.8 µM | SN12C 20.1 µM | M14 23.8 µM | HOP-62 18.6 µM | SK-MEL-5 17.3 µM | BT-549 24.9 µM | A498 17.2 µM | MDA-N 20.3 µM | HCT-116 18.7 µM | MDA-MB-435 20.7 µM | TK-10 20.4 µM | CCRF-CEM 17.7 µM

COC(=O)/C=C1/OC(c2ccccc2)=C(C)C1=O
inactive: NCI-H23 20.2 µM | NCI-H460 20 µM | IGROV-1 14.1 µM | NCI-H226 15.8 µM | M14 11.7 µM | HOP-62 16 µM | SK-MEL-5 13.6 µM | BT-549 2.86 µM | A498 18.7 µM | MDA-N 1.36 µM | HCT-116 4.18 µM | MDA-MB-435 13.9 µM | TK-10 15.7 µM | CCRF-CEM 3.62 µM | SF-539 17.4 µM

CC(C)[C@H](C)/C=C/[C@@H](C)C1CC[C@H]2[C@@]34C=C[C@]5(C[C@@H](O)CC[C@]5(C)[C@H]3CC[C@]12C)OO4 (stereo partly drawn)
inactive: NCI-H23 27.3 µM | SK-MEL-2 26.7 µM | OVCAR-4 40.1 µM | NCI-H460 31.8 µM | A549 42.7 µM | IGROV-1 29 µM | NCI-H226 22.2 µM | SN12C 28.6 µM | M14 40.7 µM | HOP-62 > 100 µM | SK-MEL-5 23.6 µM | BT-549 26.9 µM | A498 25.8 µM | MDA-N 35.1 µM | HCT-116 19.3 µM | MDA-MB-435 29.6 µM | TK-10 42 µM | SF-539 29.6 µM

O=c1cc(NNc2cccc(F)c2)[nH]c(=S)[nH]1
inactive: OVCAR-4 > 100 µM | NCI-H460 > 100 µM | A549 > 100 µM | IGROV-1 > 100 µM | NCI-H226 > 100 µM | SN12C > 100 µM | M14 > 100 µM | HOP-62 > 100 µM | SK-MEL-5 > 100 µM | BT-549 > 100 µM | A498 > 100 µM | MDA-N > 100 µM | HCT-116 > 100 µM | MDA-MB-435 > 100 µM | TK-10 > 100 µM | SF-539 > 100 µM

CC1=NNC(=O)C1C(CC(=O)c1c[nH]c2ccccc12)C(=O)O (stereo not drawn)
inactive: NCI-H23 > 100 µM | SK-MEL-2 > 100 µM | NCI-H460 > 100 µM | A549 > 100 µM | IGROV-1 15 µM | NCI-H226 > 100 µM | SN12C > 100 µM | M14 > 100 µM | HOP-62 > 100 µM | SK-MEL-5 > 100 µM | BT-549 > 100 µM | A498 > 100 µM | MDA-N > 100 µM | HCT-116 > 100 µM | MDA-MB-435 68.5 µM | TK-10 > 100 µM | CCRF-CEM 28.6 µM | SF-539 > 100 µM

COc1ccc(N[S+]([O-])c2c(C)cc(C)cc2C)cc1 (stereo not drawn)
inactive: NCI-H23 > 100 µM | SK-MEL-2 > 100 µM | OVCAR-4 86.5 µM | NCI-H460 35.6 µM | A549 26.4 µM | IGROV-1 22.5 µM | NCI-H226 36.2 µM | SN12C > 100 µM | M14 77.8 µM | HOP-62 72.1 µM | SK-MEL-5 23.8 µM | BT-549 1.79 µM | MDA-N 93.1 µM | HCT-116 14.4 µM | MDA-MB-435 21.2 µM | TK-10 > 100 µM | CCRF-CEM > 100 µM | SF-539 19.9 µM

C=CCOCn1cc(C)c(=O)[nH]c1=O
inactive: NCI-H23 > 100 µM | NCI-H460 > 100 µM | A549 > 100 µM | IGROV-1 > 100 µM | NCI-H226 > 100 µM | SN12C > 100 µM | M14 > 100 µM | HOP-62 > 100 µM | SK-MEL-5 > 100 µM | BT-549 > 100 µM | A498 > 100 µM | MDA-N > 100 µM | HCT-116 > 100 µM | MDA-MB-435 > 100 µM | TK-10 > 100 µM | CCRF-CEM > 100 µM | SF-539 > 100 µM

COc1ccc(NCn2nc(CCCCCCCCc3nn(CNc4ccc(OC)cc4)c(=S)o3)oc2=S)cc1
inactive: NCI-H23 > 100 µM | SK-MEL-2 > 100 µM | OVCAR-4 > 100 µM | NCI-H460 > 100 µM | A549 > 100 µM | NCI-H226 > 100 µM | SN12C > 100 µM | M14 > 100 µM | HOP-62 > 100 µM | SK-MEL-5 > 100 µM | BT-549 > 100 µM | A498 > 100 µM | MDA-N > 100 µM | HCT-116 21 µM | MDA-MB-435 > 100 µM | TK-10 > 100 µM

C=C1CC(O)C2C(=C)C(=O)OC2C2C(C)C(=O)CC12 (stereo not drawn)
inactive: NCI-H23 16 µM | SK-MEL-2 18.9 µM | OVCAR-4 17.6 µM | NCI-H460 24.5 µM | A549 20.3 µM | IGROV-1 18.4 µM | SN12C 15.5 µM | M14 11.8 µM | HOP-62 19.8 µM | SK-MEL-5 20.7 µM | BT-549 7.87 µM | A498 29.4 µM | MDA-N 6.87 µM | HCT-116 10 µM | MDA-MB-435 11.3 µM | TK-10 4.82 µM | CCRF-CEM 4.08 µM | SF-539 19.7 µM

O=C1/C(=C/c2ccc(Cl)cc2)N=C(c2ccccc2)N1c1nc2c(Cl)cc(Cl)cc2s1
inactive: SK-MEL-2 20.8 µM | OVCAR-4 30.9 µM | NCI-H460 28.6 µM | A549 24.5 µM | IGROV-1 32.4 µM | SN12C 23.1 µM | M14 34.9 µM | HOP-62 22 µM | SK-MEL-5 18.9 µM | BT-549 28.5 µM | A498 18.2 µM | MDA-N 17.5 µM | HCT-116 20 µM | MDA-MB-435 24.7 µM | TK-10 42.1 µM | CCRF-CEM 3.45 µM | SF-539 22.3 µM
